The text below walks through data of publication PMC9917184, “Synthesis and Biological Evaluation of Potential Oncoimmunomodulator Agents” (International Journal of Molecular Sciences, 2023).

The term inhibition denotes the change of the read-out against control, counted positive when it falls.

The subject of one test is c-Myc. Briefly: Total c-Myc relative quantification by flow cytometry in cancer cell lines. The class given is cell-based, human. The conditions noted are these: 24 h. The method, then: (§1) The effect of these triazole derivates on c-Myc and PD-L1 was measured in three different cancer cell lines (HT-29, MCF-7, A-549) by flow cytometry. Thus, cells were incubated for 24 h with the corresponding compound at a concentration of 100 μM. Dimethyl sulfoxide (DMSO)-treated cells were used as the negative control, and a PD-L1 inhibitor, BMS-8 [29, 31], was used as a reference control. After permeabilization and fixation, cells were treated with anti-PD-L1 conjugated to AlexaFluor®647 and anti-c-Myc conjugated to fluorescein to determine the amount of both targets related to the negative control. Table 1 show the results in terms of the percentage of the detected target in relation to the negative control. This assay was carried out on cancer cell lines HT-29, MCF-7, and A-549.
(§2) To study the effect of the compounds on every biological target in cancer cell lines, the compounds were used at a 100 µM dose.
(§3) For the assay, 10^5 cells per well were incubated for 24 h with the corresponding dose of the tested compound in a total volume of 500 μL of their growth media.
(§4) To detect total PD-L1 and c-Myc, after the cell treatments, they were collected and fixed with 4% in PBS paraformaldehyde. After fixation, a treatment with 0,5% in PBS Triton™ X-100 was performed, and finally, cells were stained with FITC Mouse monoclonal Anti-c-Myc (ab223913) and Alexa Fluor® 647 Rabbit monoclonal Anti-PD-L1 (ab215251).
For orientation: In flow cytometry, cells or beads pass a laser one at a time.

The test system of a further test is A-549. Briefly: A-549 cell viability in co-culture with Jurkat T cells (flow cytometry count). It is filed as cell-based, human. As to conditions: 24 h; for viability at 100 µM: Homo sapiens, A549, A-549/Jurkat T co-culture, IFN-γ stimulated, read-out: percentage of living A-549 cells relative to non-treated co-cultures; for inhibition rate of A-549 cell viability: co-cultured with Jurkat T cells, 100 μM. On the procedure: (§5) The effect of the synthesized compounds on tumor cell proliferation in the presence of PD-1-expressing Jurkat T cells was also studied. This assay was carried out, as in the previous experiments, in the HT29, MCF7, and A549 cell lines (see Table 4). Interferon γ-stimulated cancer cells were treated for 24 h with the compounds at 100 μM in presence of Jurkat T cells. Then, cells were counted using flow cytometry. The percentage of living cells relative to non-treated co-cultures (control) was established for both cancer and immune cells in every co-culture.
(§6) To study the effect of the compounds on the cell viability in co-culture with Jurkat T cells or THP-1 cells, 10^5 or 2 × 10^5 of the corresponding cancer cells line per well were seeded and incubated for 24 h, then the medium was changed by one cell culture medium supplemented with IFN-γ (10 ng/mL; human, Invitrogen®) and containing 5 × 10^5 or 10^5 Jurkat T cells or THP-1, respectively, per well and 100 µM of the corresponding compound or DMSO for the […] control. After 24 h/48 h of incubation, supernatants were collected to determine Jurkat T or THP-1 living cells, and on the other hand, corresponding cancer cells were collected with trypsin. Both types of suspension cells were fixed with 4% in PBS paraformaldehyde and counted by flow cytometry.

For a further test, the system named is HT-29. As to the kind of experiment: HT-29 cell viability in co-culture with Jurkat T cells (flow cytometry count). It is filed as cell-based, human. As to conditions: 24 h; for viability at 100 µM: Homo sapiens, HT-29/Jurkat T co-culture, IFN-γ stimulated, read-out: percentage of living HT-29 cells relative to non-treated co-cultures. The method, then: as §5, §6

The subject of a further test is MCF-7. As to the kind of experiment: MCF-7 cell viability in co-culture with Jurkat T cells (flow cytometry count). As to conditions: Homo sapiens, MCF7, MCF-7/Jurkat T co-culture, IFN-γ stimulated, 24 h, read-out: percentage of living MCF-7 cells relative to non-treated co-cultures. It is filed as cell-based, human. The method, then: as §5, §6
In a further test the test system is Jurkat T cells. Briefly: Jurkat T cell viability in co-culture with cancer cells (flow cytometry count). It is filed as cell-based. The conditions noted are these: Homo sapiens, 24 h, read-out: percentage of living Jurkat cells relative to non-treated co-cultures. The method, then:
as §5, §6

In a further test the test system is membrane VEGFR-2. As to the kind of experiment: Membrane VEGFR-2 relative quantification by flow cytometry in cancer cells co-cultured with Jurkat T cells. The conditions noted are these: 100 μM, 24 h, relative to non-treated co-cultures. The class given is cell-based, human. On the procedure:
(§7) We determined by flow cytometry the effect of these compounds on the expression of membrane PD-L1 in cancer cells when they were co-cultured with immune cells. Thus, interferon γ-stimulated cancer cells were treated for 24 h with the compounds at 100 μM in presence of Jurkat T cells. Then, cells were fixed and treated with anti-PD-L1 conjugated to AlexaFluor®647. We took advantage of the versatility of flow cytometry to simultaneously measure the expression of membrane VEGFR-2 by using anti-VEGFR-2 conjugated to fluorescein.
(§8) To study the effect of the compounds on every biological target in co-cultured cancer cell lines, the compounds were incubated for 24h as described before.
(§9) To detect membrane PD-L1 and VEGFR-2, after the cell treatments, they were collected, fixed with 4% in PBS paraformaldehyde, and stained with FITC Mouse monoclonal Anti-Human VEGFR-2 (ab184903) and Alexa Fluor® 647 Rabbit monoclonal Anti-PD-L1 (ab215251).

For a further test, the target named is T1, membrane PD-L1 (Homo sapiens, UniProt Q9NZQ7).
T1 construct: Alexa Fluor® 647 Rabbit monoclonal Anti-PD-L1 (ab215251); endogenous in cells; host or cells: HT-29, MCF-7, A-549 (A17: MCF-7 only; A14: IFN-gamma-stimulated cancer cells co-cultured with Jurkat T cells)
Briefly: Membrane PD-L1 relative quantification by flow cytometry in cancer cells co-cultured with Jurkat T cells. The conditions noted are these: Jurkat, 24 h; for remaining activity at 100 µM: relative to non-treated co-cultures, read-out: % PDL1 (membrane); for inhibition at 100 µM: HT-29 co-cultured with Jurkat T cells, read-out: membrane PD-L1 inhibition rate. The class given is cell-based. The method, then: as §7, §8, §9

For another test, the target named is PD-L1 (Homo sapiens, UniProt Q9NZQ7). Briefly: Total PD-L1 relative quantification by flow cytometry in cancer cell lines. The class given is cell-based. Also noted: Alexa Fluor® 647 Rabbit monoclonal Anti-PD-L1 (ab215251); endogenous in cells; host or cells: HT-29. The conditions noted are these: 24 h, total PD-L1 relative to negative control (DMSO). On the procedure:
as §1, §2, §3, §4

Setting [1] is: A-549, 100 µM, relative to negative control (DMSO).
The mark [2] stands for this setting: HT-29, 100 µM, detected target relative to negative control (DMSO).
Setting [3] is: MCF-7, 100 µM, relative to negative control (DMSO).
The mark [4] stands for this setting: A549 co-cultured with Jurkat T cells.
[5] abbreviates: HT29 co-cultured with Jurkat T cells.
Where [6] appears, read: MCF7 co-cultured with Jurkat T cells.

Molecules are shown by their SMILES. Read-outs that look alike come from different tables or passages of the source.

Sequence of PD-L1 (Q9NZQ7 19-290): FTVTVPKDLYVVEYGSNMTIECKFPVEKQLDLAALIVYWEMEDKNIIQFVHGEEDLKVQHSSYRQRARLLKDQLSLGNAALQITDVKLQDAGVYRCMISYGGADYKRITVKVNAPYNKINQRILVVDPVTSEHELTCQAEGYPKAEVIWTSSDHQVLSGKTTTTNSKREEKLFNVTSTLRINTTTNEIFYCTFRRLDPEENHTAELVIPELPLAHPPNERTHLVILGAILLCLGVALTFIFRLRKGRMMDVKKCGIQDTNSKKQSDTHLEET
T1 sequence (Q9NZQ7 19-290): as above

Regarding `COc1ccc(-c2cn(CCc3ccc(CCO)cc3)nn2)cc1` [Compound 10, 2-(4-(2-(4-(4-methoxyphenyl)-1H-1,2,3-triazol-1-yl)ethyl)phenyl)ethan-1-ol], the “% c-Myc” value in the test on c-Myc (setting [1]) is on record as 126 ± 2%; with c-Myc (setting [2]), 83 ± 8%; in the test with c-Myc (setting [3]), 91 ± 6%. Besides, the viability at 100 µM stood at 103 ± 4% with A-549; 145 ± 16% in the test with HT-29; 94 ± 2% in the test on MCF-7; 100 ± 4% in the test with Jurkat T cells (A-549/Jurkat T co-culture); 120 ± 23% with Jurkat T cells (HT-29/Jurkat T co-culture); 148 ± 20% with Jurkat T cells (MCF-7/Jurkat T co-culture). In addition, the “inhibition rate of A-549 cell viability” value in the test on A-549 was “no activity”. Besides, the “%VEGFR2 (membrane)” value worked out at 107 ± 1% with membrane VEGFR-2 (setting [4]), 94 ± 6% in the test with membrane VEGFR-2 (setting [5]) and 105 ± 3% in the test on membrane VEGFR-2 (setting [6]). Also, the remaining activity at 100 µM at membrane PD-L1 (setting [4]) was 84 ± 6%; on membrane PD-L1 (setting [5]) it was 126 ± 7%; at membrane PD-L1 (setting [6]), 48 ± 7%; at PD-L1 (A549, A-549, 100 µM), 62 ± 14%; on PD-L1 (HT-29, 100 µM), 82 ± 2%; on PD-L1 (MCF7, MCF-7, 100 µM) it was 114 ± 9%.
In the case of `OCCc1ccc(CCn2cc(-c3ccccc3)nn2)cc1` [Compound 2, 2-(4-(2-(4-phenyl-1H-1,2,3-triazol-1-yl)ethyl)phenyl)ethan-1-ol], the “% c-Myc” value with c-Myc (setting [1]) is recorded as 79 ± 10%; in the test on c-Myc (setting [2]) it was 115 ± 8%; with c-Myc (setting [3]) it was 122 ± 13%. Besides, the viability at 100 µM is 123 ± 25% in the test on A-549; 79 ± 20% in the test on HT-29; 80 ± 6% in the test with MCF-7; 89 ± 17% with Jurkat T cells (A-549/Jurkat T co-culture); 107 ± 4% in the test on Jurkat T cells (HT-29/Jurkat T co-culture); 87 ± 22% in the test with Jurkat T cells (MCF-7/Jurkat T co-culture). Moreover, the “%VEGFR2 (membrane)” value with membrane VEGFR-2 (setting [4]) is reported as 90 ± 10%; in the test with membrane VEGFR-2 (setting [5]), 101 ± 11%; in the test on membrane VEGFR-2 (setting [6]), 86 ± 2%. The remaining activity at 100 µM at membrane PD-L1 (setting [4]) came out at 60 ± 6%; on membrane PD-L1 (setting [5]) it was 124 ± 34%; on membrane PD-L1 (setting [6]), 82 ± 6%; at PD-L1 (A549, A-549, 100 µM) it was 76 ± 2%; on PD-L1 (HT-29, 100 µM), 82 ± 6%; at PD-L1 (MCF7, MCF-7, 100 µM), 115 ± 7%.
As for `OCCc1ccc(CCn2cc(-c3ccc(Br)cc3)nn2)cc1` [Compound 4, 2-(4-(2-(4-(4-bromophenyl)-1H-1,2,3-triazol-1-yl)ethyl)phenyl)ethan-1-ol], the entries for the “% c-Myc” value in the test with c-Myc (setting [1]), in the test on c-Myc (setting [2]) and in the test with c-Myc (setting [3]) were 95 ± 2%, 108 ± 8% and 91 ± 8%, respectively. The viability at 100 µM with A-549 is 79 ± 5%; in the test on HT-29, 115 ± 14%; in the test on MCF-7, 87 ± 6%; in the test with Jurkat T cells (A-549/Jurkat T co-culture) it was 122 ± 11%; in the test on Jurkat T cells (HT-29/Jurkat T co-culture), 145 ± 9%; in the test on Jurkat T cells (MCF-7/Jurkat T co-culture), 218 ± 69%. Moreover, the “inhibition rate of A-549 cell viability” value in the test on A-549 is on record as “around 30%”. Besides, the “inhibition rate of HT-29 cell viability” value with HT-29 (co-cultured with Jurkat T cells, 100 μM) is reported as “not active”. Also, the “%VEGFR2 (membrane)” value came to 99 ± 4% in the test on membrane VEGFR-2 (setting [4]), 94 ± 3% with membrane VEGFR-2 (setting [5]) and 121 ± 19% in the test with membrane VEGFR-2 (setting [6]). Also, the remaining activity at 100 µM at membrane PD-L1 (setting [4]) came to 80 ± 3%; at membrane PD-L1 (setting [5]), 54 ± 3%; at membrane PD-L1 (setting [6]) it was 89 ± 3%; on PD-L1 (A549, A-549, 100 µM) it was 55 ± 8%; on PD-L1 (HT-29, 100 µM) it was 111 ± 8%; at PD-L1 (MCF7, MCF-7, 100 µM), 237 ± 19%. On membrane PD-L1, the inhibition at 100 µM lay within 40 to 50%.
In the test on c-Myc (A-549, 100 μM), `COc1ccc(-c2cn(CCc3ccc(CCOC(c4ccccc4)(c4ccc(OC)cc4)c4ccc(OC)cc4)cc3)nn2)cc1` [Compound 9, 1-(4-(2-(bis(4-methoxyphenyl)(phenyl)methoxy)ethyl)phenethyl)-4-(4-methoxyphenyl)-1H-1,2,3-triazole] returned a c-Myc inhibition rate of 40%. The figures for the “% c-Myc” value in the test with c-Myc (setting [1]), in the test with c-Myc (setting [2]) and in the test with c-Myc (setting [3]) were 61 ± 3%, 71 ± 10% and 88 ± 4%, respectively. In addition, the viability at 100 µM with A-549 was determined as 106 ± 1%; in the test on HT-29, 51 ± 17%; with MCF-7 it was 69 ± 9%; in the test with Jurkat T cells (A-549/Jurkat T co-culture), 462 ± 99%; in the test with Jurkat T cells (HT-29/Jurkat T co-culture), 56 ± 18%; in the test with Jurkat T cells (MCF-7/Jurkat T co-culture) it was 84 ± 17%. The “inhibition rate of A-549 cell viability” value in the test on A-549 is reported as “no activity”. In addition, the “%VEGFR2 (membrane)” value with membrane VEGFR-2 (setting [4]) is listed as 92 ± 3%; with membrane VEGFR-2 (setting [5]) it was 76 ± 13%; with membrane VEGFR-2 (setting [6]) it was 76 ± 10%. Also, the remaining activity at 100 µM on membrane PD-L1 (setting [4]) is 82 ± 2%; on membrane PD-L1 (setting [5]), 63 ± 11%; on membrane PD-L1 (setting [6]), 40 ± 5%; at PD-L1 (A549, A-549, 100 µM), 92 ± 21%; at PD-L1 (HT-29, 100 µM), 57 ± 8%; on PD-L1 (MCF7, MCF-7, 100 µM), 89 ± 5%. The inhibition at 100 µM at membrane PD-L1 lay within 40 to 50%.
